# According to US11008334B2, “Compositions and methods for treating cancer” (The Regents of the University of California, priority 2012, dated 2021):
# Like-named read-outs stand apart in the source and are kept apart here.
# Assays:
# K-RasG12C (1-169) [1] = biological target: T1, K-RasG12C (1-169) (Homo sapiens, UniProt P01116, G12C); assay: Disulfide library (tethering) screen, covalent modification by mass spectrometry; assay type: binding; conditions: 200 micM BME; read-out: Potency/ Labeling (EC50 at 200 micM BME) Tethering
# T1 construct: Un-tagged recombinant K-Ras G12C (1-169) at 4 μM in Buffer A; hexahistidine (cleaved yes); made in house; host or cells: Escherichia coli BL21 (DE)
# K-RasG12C (1-169) [2] = biological target: T1, K-RasG12C (1-169); assay: Mass spectrometric screen for extent of covalent labeling; assay type: binding; conditions: for percent covalent labeling at 10 µM: 10 micromolar; for Labeling % (10 micM) 24h: 10 micM compound, (plate) or (single) measurement
# Protocol: Un-tagged recombinant K-Ras G12C (1-169) at 4 μM in Buffer A was reacted with inhibitors at 200 μM or 10 μM (2% DMSO final). At 2, 6, and 24 hrs, 10 μL aliquots were removed and the reactions were stopped by addition of 1 μL 2% formic acid. The extent of modification was determined by mass spectrometry.
# [3] = tested on: binding of RasGTP to Raf1-RBD; assay: Raf1-RBD pull-downs; conditions: after EDTA-catalyzed exchange
# G12C cell lines = assay: Proliferation of human lung cancer cell lines; assay type: cell-based; conditions: 24 hr treatment (0.5% FBS), 48 hr washout (10% FBS)
# [4] = 2 h, 2 hrs, read-out: Percent reduction in activity of compound at 10 micromolar relative to control (no compound), 2 hrs
# [5] = 6 h, 6 hrs, read-out: Percent reduction in activity of compound at 10 micromolar relative to control (no compound), 6 hrs
# [6] = 24 h, 24 hrs, read-out: Percent reduction in activity of compound at 10 micromolar relative to control (no compound), 24 hrs
SMILES,EC50 (K-RasG12C (1-169) [1]) [µM],percent covalent labeling at 10 µM (K-RasG12C (1-169) [2]; [4]) [%],percent covalent labeling at 10 µM (K-RasG12C (1-169) [2]; [5]) [%],percent covalent labeling at 10 µM (K-RasG12C (1-169) [2]; [6]) [%],Labeling % (10 micM) 24h (K-RasG12C (1-169) [2]; Table 5),binding of RasGTP to Raf1-RBD [3],sensitivity of proliferation of G12C cell lines (G12C cell lines),Labeling % (10 micM) 24h (K-RasG12C (1-169) [2])
O=C(NCCS)C1CCN(C(=O)COc2ccc(Cl)cc2Cl)CC1 [JO-01-148],40 to 60,,,,,,,
C=CS(=O)(=O)N1CCC(Nc2cc(-c3cc(Cl)c(Cl)cc3I)ccn2)CC1 [Ras-072],,≤ 5,≤ 5,≤ 5,,,,
C=CC(=O)N1CCN(C(=O)CNc2cc(Cl)c(Cl)cc2O)CC1 [Ras-073],,,20 to 40,> 60,,,,
C=CS(=O)(=O)NC1CCN(C(=O)COc2cc(C(C)(C)O)c(Cl)cc2Cl)CC1 [Ras-074],,,,40 to 60,,,,
C=CS(=O)(=O)NC1CCN(C(=O)CNc2cc(OC)c(Cl)cc2I)CC1 [Ras-077],,,5 to 20,> 60,,,,
C=CS(=O)(=O)NC1CCN(C(=O)CNc2cc(I)c(Cl)cc2OC)CC1 [Ras-079],,20 to 40,> 60,> 60,+++++ (single) (60% < +++++),,,
C=CC(=O)N1CCN(C(=O)CNc2cc(I)c(Cl)cc2OC)CC1 [Ras-080],,,,20 to 40,,,,
C=CS(=O)(=O)NC1CCN(C(=O)CNc2cc(-c3ccccc3)c(Cl)cc2OC)CC1 [Ras-082],,,20 to 40,> 60,,,,
C=CC(=O)N1CCN(C(=O)CNc2cc(I)c(Cl)cc2O)CC1 [Ras-083],,,20 to 40,> 60,,impairs binding of RasGTP to Raf1-RBD,significantly more sensitive,
C=CS(=O)(=O)NC1CCN(C(=O)CNc2cc(I)c(Cl)cc2O)CC1 [Ras-084],,20 to 40,> 60,> 60,,,,
C=CS(=O)(=O)NC1CCN(C(=O)CNc2cc(CC)c(Cl)cc2OC)CC1 [Ras-085],,5 to 20,20 to 40,> 60,,,,
C=CS(=O)(=O)NC1CCN(C(=O)CNc2cc(-c3ccccc3)c(Cl)cc2I)CC1 [Ras-086],,,,40 to 60,,,,
C=CS(=O)(=O)NC1CCN(C(=O)COc2c(Cl)cc(Cl)c3cccnc23)CC1 [UP-I-154A],,≤ 5,≤ 5,≤ 5,,,,
C=CS(=O)(=O)NC1CCN(C(=O)CSc2cn(CC)c3ccccc23)CC1 [UP-I-154B],,≤ 5,≤ 5,≤ 5,,,,
C=CS(=O)(=O)NC1CCN(C(=O)COc2ncnc3sc(C)cc23)CC1 [UP-I-154K],,≤ 5,≤ 5,≤ 5,,,,
C=CS(=O)(=O)NC1CCN(C(=O)CSc2nc3cc(C)ccc3[nH]2)CC1 [UP-I-160B],,≤ 5,≤ 5,≤ 5,,,,
C=CS(=O)(=O)NC1CCN(C(=O)COc2c(Cl)cc(Cl)cc2NC(=O)OC(C)(C)C)CC1 [UP-I-162B],,≤ 5,≤ 5,≤ 5,,,,
C=CS(=O)(=O)NC1CCN(C(=O)CSc2nnc(C)s2)CC1 [UP-I-164A],,≤ 5,≤ 5,≤ 5,,,,
C=CS(=O)(=O)NC1CCN(C(=O)CSc2nnc(C)o2)CC1 [UP-I-164B],,≤ 5,≤ 5,≤ 5,,,,
C=CS(=O)(=O)NC1CCN(C(=O)CSc2n[nH]c(C)n2)CC1 [UP-I-164C],,≤ 5,≤ 5,≤ 5,,,,
C=CS(=O)(=O)NC1CCN(C(=O)COc2c(Cl)cc(Cl)cc2-c2ccno2)CC1 [UP-I-165B],,≤ 5,≤ 5,≤ 5,,,,
C=CS(=O)(=O)NC1CCN(C(=O)COc2ccc3nncn3n2)CC1 [UP-I-165C],,≤ 5,≤ 5,≤ 5,,,,
C=CS(=O)(=O)NC1CCN(C(=O)CSc2nc(C)cs2)CC1 [UP-I-165D],,≤ 5,≤ 5,≤ 5,,,,
C=CS(=O)(=O)NC1CCN(C(=O)COc2c(Cl)cc(Cl)c3c2OC(C)(C)O3)CC1 [UP-I-177C],,≤ 5,5 to 20,40 to 60,++++ (plate) (40% < ++++ <=60%),,,++++ (plate) (40% < ++++ <=60%)
C=CS(=O)(=O)NC1CCN(C(=O)COc2c(Br)cc(Br)c3c2OC(C)(C)O3)CC1 [UP-I-177D],,≤ 5,≤ 5,> 60,,,,
C=CS(=O)(=O)NC1CCN(C(=O)CNc2c(Cl)cc(Cl)c3nsnc23)CC1 [UP-I-185a],,5 to 20,20 to 40,> 60,+++++ (single) (60% < +++++),,,+++++ (single) (60% < +++++)
C=CS(=O)(=O)NC1CCN(C(=O)COc2c(N)cc(Cl)cc2Cl)CC1 [UP-I-185b],,≤ 5,≤ 5,5 to 20,,,,
C=CS(=O)(=O)NC1CCN(C(=O)CNc2c(Cl)cc(Cl)c3nonc23)CC1 [UP-I-187],,≤ 5,≤ 5,20 to 40,+++ (single) (20%< +++ <=40%),,,
